Experimental findings from patent publication US20100216876A1, “ANTIDIARRHETIC COMPOSITION, PRODUCT CONTAINING THE SAME AND METHOD OF PREVENTING DIAHHREA” (priority 2007, published 2010) are described below.

For the test, the system named is intestinal Cl− secretion. The test is described as follows: Short-circuit current (Isc) measurement of cecum mucosa sample in Ussing chamber after forskolin. Type of test: cell-based, mouse. The method, then:
A sample of large-intestinal mucosa was prepared in the following manner. A mouse was killed by cervical vertebra dislocation. After abdominal incision, the cecum was excised by cutting the boundary parts of the cecum with the small intestine and the large intestine. The cecum was cut open with scissors into a sheet. In order to completely remove the contents of the cecum, the cecum was pinched with tweezers and washed with a buffered solution. Then, a substitution fluid was placed in a petri dish covered with rubber, and the cecum was attached thereon with the serosa side up. Under conditions in which the buffered solution-in the petri dish was always aerated with 95% O2/5% CO2, the muscle layer was peeled using tweezers, and a sample composed of mucosa and submucosa was produced. The sample was divided into four pieces for the experiment.
Electrical analysis was carried out using this sample. FIG. 1 is a diagram showing an embodiment of measurement of short-circuit current (Isc) in Ussing chamber. The mucosa sample was placed between two Ussing-type chambers (window area: 0.2 cm^2) containing 5 ml of buffered solution. For the measurement of the electrical potential difference, a pair of calomel electrodes was connected to each chamber through a 1MKCl/2% agar salt bridge. For passing current, Ag/AgGl electrodes connected through a 1MNaCl/2% agar salt bridge were mounted. These electrodes were connected to a voltage clamp apparatus, and the short-circuit current (Isc) was measured. As for Isc, the current flowing from the mucosa side to the serosa side was positive.
The solutions to be administered were prepared as stock solutions so that the concentration of each solution was 1,000 times higher than the desired final concentration.

Setting [1] is: 20 μM on the serosa side after forskolin.
Where [2] appears, read: 50 μM on the serosa side after forskolin.

With `CC(C)[C@@H]1CC[C@@H](C)C[C@H]1OCCCO`, the Isc decrease entry is “about 50 μA/cm^2” under setting [1] and “about 70 μA/cm^2” under setting [2].
In the case of `CC(C)[C@@H]1CC[C@@H](C)C[C@H]1OCCO` [2-(l-menthoxy)ethanol], the Isc decrease result is, setting by setting: under setting [1], “about 10 μA/cm^2”; (150 μM on the serosa side after forskolin) “about 70 μA/cm^2”.
As for `CC(C)[C@@H]1CC[C@@H](C)C[C@H]1OCC(C)(O)CO` (stereo partly drawn) [2-methyl-3-(l-menthoxy)propane-1,2-diol], under setting [1], the Isc decrease result was “about 100 μA/cm^2” and the “action on Isc compared with menthol” value was “almost equal to the administration of 500 μM of menthol”. Also, the “dose dependence of the Isc inhibitory effect” value (serosa side after forskolin) was “dose dependence was observed at doses up to 50 μM”.
As to `CC1CCC(C(C)C)C(OCC(O)CO)C1` (stereo not drawn) [3-(l-menthoxy)propane-1,2-diol], the Isc decrease entry was “about 50 μA/cm^2” under setting [1] and “about 70 μA/cm^2” under setting [2].
